Legend:
[1] = molecular target: cSRC(h) (Homo sapiens, UniProt P12931); assay: KinaseProfiler kinase assay; assay type: biochemical
Method in brief: (§1)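 Steps: compound diluted from DMSO into MOPS/BSA assay buffer; MgATP mix with [γ-33P]ATP added to start; 40 min incubation at room temperature; phosphoric acid stop; filtermat spotting, washing in 50 mM phosphoric acid and methanol; scintillation counting.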

[2] = molecular target: T1, Flt3(h) (Homo sapiens, UniProt P36888); assay: KinaseProfiler kinase assay; assay type: biochemical
T1 sequence (P36888 27-993): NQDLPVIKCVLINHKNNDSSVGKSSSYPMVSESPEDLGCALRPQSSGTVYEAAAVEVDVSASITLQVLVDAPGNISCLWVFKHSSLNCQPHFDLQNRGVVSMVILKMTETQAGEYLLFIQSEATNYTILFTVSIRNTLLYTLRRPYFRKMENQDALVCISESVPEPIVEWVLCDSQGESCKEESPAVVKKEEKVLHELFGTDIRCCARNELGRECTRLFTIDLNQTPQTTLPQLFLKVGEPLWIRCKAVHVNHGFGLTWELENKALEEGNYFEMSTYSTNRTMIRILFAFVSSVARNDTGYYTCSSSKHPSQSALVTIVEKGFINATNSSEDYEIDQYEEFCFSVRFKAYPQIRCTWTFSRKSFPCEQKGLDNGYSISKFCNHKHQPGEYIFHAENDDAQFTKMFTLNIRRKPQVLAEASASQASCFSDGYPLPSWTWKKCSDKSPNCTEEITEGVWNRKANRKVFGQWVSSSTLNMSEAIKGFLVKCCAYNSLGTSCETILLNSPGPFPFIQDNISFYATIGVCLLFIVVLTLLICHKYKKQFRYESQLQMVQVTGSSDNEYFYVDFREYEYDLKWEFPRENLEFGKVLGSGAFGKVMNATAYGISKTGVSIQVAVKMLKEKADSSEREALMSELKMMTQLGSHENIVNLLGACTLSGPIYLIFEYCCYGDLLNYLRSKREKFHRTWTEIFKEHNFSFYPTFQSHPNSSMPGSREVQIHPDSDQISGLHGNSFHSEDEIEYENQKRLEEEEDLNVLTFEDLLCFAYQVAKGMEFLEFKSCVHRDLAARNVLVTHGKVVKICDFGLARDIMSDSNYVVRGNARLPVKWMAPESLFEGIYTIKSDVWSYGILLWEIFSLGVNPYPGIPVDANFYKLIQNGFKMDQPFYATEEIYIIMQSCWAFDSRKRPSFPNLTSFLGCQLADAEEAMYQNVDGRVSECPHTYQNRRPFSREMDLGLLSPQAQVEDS
Method in brief: as §1

[3] = molecular target: T2, Aurora-A(h) (Homo sapiens, UniProt O14965); assay: KinaseProfiler kinase assay; assay type: biochemical; settings: read-out: % Inhibition @1 μM Auroro-A
T2 sequence (O14965 1-403): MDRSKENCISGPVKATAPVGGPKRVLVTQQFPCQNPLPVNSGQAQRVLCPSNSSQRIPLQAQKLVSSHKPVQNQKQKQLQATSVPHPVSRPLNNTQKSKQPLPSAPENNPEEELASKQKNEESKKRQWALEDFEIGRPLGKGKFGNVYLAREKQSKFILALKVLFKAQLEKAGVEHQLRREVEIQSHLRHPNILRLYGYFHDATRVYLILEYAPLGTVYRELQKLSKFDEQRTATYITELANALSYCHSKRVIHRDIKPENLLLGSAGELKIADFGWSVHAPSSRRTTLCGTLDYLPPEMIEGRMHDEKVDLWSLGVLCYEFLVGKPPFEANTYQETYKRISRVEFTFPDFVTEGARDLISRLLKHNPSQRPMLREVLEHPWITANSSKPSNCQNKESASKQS
Method in brief: as §1

[4] = molecular target: Ret(h) (Homo sapiens, UniProt P07949); assay: KinaseProfiler kinase assay; assay type: biochemical
Method in brief: as §1

[5] = tested on: KU812; assay: CellTiterBlue cell growth inhibition; assay type: cell-based; settings: Homo sapiens; KU812, 72 hours
Description: (§2) This example illustrated the proliferating cell growth inhibition of selected compounds from this invention. To do this, the cells were seeded into fresh Iscove's growth medium at a density of 0.4e6 cells/ml and grown in log phase for 24 hr. Cells were then resuspended in their fresh respective growth media at 0.1e^6 cells/ml and plated into 384 well black, clear-bottom microplates at 36 ul/well. Test compounds and controls were initially dissolved in DMSO at the desired concentration, then serially diluted to the assay buffer. These solutions were added and cells were incubated for 72 hours at 37° C. CellTiterBlue (Promega cat# G7572) was added on the Beckman FX. Plates were returned to the 37° C. CO2 incubator for 4 hr and then fluorescence was determined on the Victor plate reader. Data were processed using Microsoft Excel, and GI50 values were generated using Prism (GraphPad Software, San Diego, Calif.).

[6] = tested on: MV4.11; assay: CellTiterBlue cell growth inhibition; assay type: cell-based; settings: Homo sapiens; MV4.11, 72 hours
Description: as §2

[7] = tested on: RS4.11; assay: CellTiterBlue cell growth inhibition; assay type: cell-based; settings: Homo sapiens; RS4.11, 72 hours
Description: as §2

[8] = tested on: K562; assay: CellTiterBlue cell growth inhibition; assay type: cell-based; settings: Homo sapiens; K562, 72 hours
Description: as §2

[9] = tested on: human MIAPaCa-2 pancreatic carcinoma xenograft; assay: Pancreatic carcinoma xenograft in athymic nude mice; assay type: in vivo, mouse; settings: MIAPaCa-2 xenograft, nude mice, single agent
Description: The objective of the third study was to evaluate antitumor activities of novel multiple-kinase inhibitor NTW-3475 in human MIAPaCa-2 pancreatic carcinoma xenograft in athymic nude-Faxn1 mice.
Four animals were randomly assigned to study groups. Each animal was weighed, and then injected subcutaneously in the left and right flank area with 0.1 ml of 5.0×10^7 MIAPaCa-2 cells per mL.
Each test or control animal was on a 5-day on, two-day off for two cycles treatment schedule with negative control vehicle, positive control Abraxane at 20 mg/kg or 25, 50 mg/kg of NTW-3475. Tumor growth was measured with a digital hand held caliper twice weekly (once tumor emerges) prior to the first dosing and then two to three times weekly until euthanized.
The objective of the third study was to evaluate antitumor activities of novel multiple-kinase inhibitor Compound 10, 11, 12, 53, 68, 82, 83, 88, and 90 in human MIAPaCa-2 pancreatic carcinoma xenograft in athymic nude-Faxn1 mice.
Each test or control animal was on a 5-day on, two-day off for three cycles treatment schedule with negative control vehicle or 40 mg/kg of Compound 10, 11, 12, 53, 68, 82, 83, 88 and 90. Tumor growth was measured with a digital hand held caliper twice weekly (once tumor emerges) prior to the first dosing and then two to three times weekly until euthanized.

[10] = molecular target: KDR(h) (Homo sapiens, UniProt P35968); assay: KinaseProfiler kinase assay; assay type: biochemical
[11] = molecular target: Abl(h) (Homo sapiens, UniProt P00519); assay: KinaseProfiler kinase assay; assay type: biochemical
[12] = tested on: AN3.CA; assay: CellTiterBlue cell growth inhibition; assay type: cell-based; settings: Homo sapiens, 72 hours
Description: as §2

[13] = tested on: TT; assay: CellTiterBlue cell growth inhibition; assay type: cell-based; settings: Homo sapiens, 72 hours
Description: as §2

Chain of Abl(h) (P00519 whole entry): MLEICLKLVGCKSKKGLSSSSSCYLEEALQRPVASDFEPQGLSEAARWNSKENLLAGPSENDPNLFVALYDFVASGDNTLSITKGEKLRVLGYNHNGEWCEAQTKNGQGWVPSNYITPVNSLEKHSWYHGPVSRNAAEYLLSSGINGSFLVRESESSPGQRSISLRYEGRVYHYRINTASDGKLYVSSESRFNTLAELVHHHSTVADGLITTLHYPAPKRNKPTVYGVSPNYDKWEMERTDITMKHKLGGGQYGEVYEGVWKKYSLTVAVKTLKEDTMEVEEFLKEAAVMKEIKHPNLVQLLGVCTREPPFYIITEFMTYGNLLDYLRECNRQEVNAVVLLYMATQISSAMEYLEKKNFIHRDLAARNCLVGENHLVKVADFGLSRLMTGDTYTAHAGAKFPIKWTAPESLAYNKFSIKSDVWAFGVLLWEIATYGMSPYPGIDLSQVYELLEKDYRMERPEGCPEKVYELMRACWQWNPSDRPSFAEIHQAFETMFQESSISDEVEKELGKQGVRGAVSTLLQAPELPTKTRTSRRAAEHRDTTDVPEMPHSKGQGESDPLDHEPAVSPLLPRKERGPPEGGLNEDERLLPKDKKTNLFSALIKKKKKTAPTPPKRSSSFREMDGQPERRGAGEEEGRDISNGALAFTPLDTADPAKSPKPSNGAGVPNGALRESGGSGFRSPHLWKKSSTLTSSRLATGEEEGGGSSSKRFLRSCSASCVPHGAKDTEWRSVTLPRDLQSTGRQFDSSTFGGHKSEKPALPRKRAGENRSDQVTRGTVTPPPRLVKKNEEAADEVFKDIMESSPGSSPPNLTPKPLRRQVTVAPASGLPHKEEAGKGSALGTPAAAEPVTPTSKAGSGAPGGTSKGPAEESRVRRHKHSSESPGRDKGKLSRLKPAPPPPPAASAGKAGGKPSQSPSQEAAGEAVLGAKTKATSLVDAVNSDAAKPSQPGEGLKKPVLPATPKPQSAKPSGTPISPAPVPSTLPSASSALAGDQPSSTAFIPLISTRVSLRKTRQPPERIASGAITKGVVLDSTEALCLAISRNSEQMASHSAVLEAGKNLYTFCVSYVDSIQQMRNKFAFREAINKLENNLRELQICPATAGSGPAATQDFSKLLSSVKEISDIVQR
Chain of KDR(h) (P35968 20-1356): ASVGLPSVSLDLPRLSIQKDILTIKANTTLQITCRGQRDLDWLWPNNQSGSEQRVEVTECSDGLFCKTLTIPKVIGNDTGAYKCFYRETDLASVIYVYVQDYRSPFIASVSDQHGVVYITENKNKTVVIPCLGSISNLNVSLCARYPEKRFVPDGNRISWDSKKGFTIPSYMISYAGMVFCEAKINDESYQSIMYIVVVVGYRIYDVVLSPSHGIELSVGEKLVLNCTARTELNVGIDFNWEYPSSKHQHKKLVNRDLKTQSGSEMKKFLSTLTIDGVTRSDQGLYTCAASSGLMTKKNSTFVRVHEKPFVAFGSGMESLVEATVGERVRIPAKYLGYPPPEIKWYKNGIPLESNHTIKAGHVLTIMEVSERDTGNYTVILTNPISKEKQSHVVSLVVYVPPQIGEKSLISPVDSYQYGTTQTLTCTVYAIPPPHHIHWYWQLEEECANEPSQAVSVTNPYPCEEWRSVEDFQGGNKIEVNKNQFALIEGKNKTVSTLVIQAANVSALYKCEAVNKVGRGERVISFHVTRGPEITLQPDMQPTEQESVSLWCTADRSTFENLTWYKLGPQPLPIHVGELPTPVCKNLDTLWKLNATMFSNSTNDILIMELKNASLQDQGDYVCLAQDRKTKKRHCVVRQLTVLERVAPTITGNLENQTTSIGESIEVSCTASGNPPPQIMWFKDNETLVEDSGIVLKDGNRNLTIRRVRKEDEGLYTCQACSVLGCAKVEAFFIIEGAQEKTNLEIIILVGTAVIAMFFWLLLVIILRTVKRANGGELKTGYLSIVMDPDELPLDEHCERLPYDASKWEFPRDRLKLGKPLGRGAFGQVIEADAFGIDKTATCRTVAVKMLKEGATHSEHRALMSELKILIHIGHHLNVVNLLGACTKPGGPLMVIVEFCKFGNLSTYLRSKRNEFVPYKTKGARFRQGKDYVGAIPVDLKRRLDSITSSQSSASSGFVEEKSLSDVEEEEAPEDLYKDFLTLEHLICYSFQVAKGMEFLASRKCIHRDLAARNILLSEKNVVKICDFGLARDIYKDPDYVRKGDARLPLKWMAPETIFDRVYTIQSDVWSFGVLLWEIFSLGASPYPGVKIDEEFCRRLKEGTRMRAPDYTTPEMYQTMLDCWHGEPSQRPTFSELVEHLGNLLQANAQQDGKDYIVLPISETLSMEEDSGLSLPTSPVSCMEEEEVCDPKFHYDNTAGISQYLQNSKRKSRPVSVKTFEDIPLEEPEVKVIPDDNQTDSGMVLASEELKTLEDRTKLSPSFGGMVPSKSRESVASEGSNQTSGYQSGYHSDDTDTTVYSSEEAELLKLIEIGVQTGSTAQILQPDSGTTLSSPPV
Chain of cSRC(h) (P12931 whole entry): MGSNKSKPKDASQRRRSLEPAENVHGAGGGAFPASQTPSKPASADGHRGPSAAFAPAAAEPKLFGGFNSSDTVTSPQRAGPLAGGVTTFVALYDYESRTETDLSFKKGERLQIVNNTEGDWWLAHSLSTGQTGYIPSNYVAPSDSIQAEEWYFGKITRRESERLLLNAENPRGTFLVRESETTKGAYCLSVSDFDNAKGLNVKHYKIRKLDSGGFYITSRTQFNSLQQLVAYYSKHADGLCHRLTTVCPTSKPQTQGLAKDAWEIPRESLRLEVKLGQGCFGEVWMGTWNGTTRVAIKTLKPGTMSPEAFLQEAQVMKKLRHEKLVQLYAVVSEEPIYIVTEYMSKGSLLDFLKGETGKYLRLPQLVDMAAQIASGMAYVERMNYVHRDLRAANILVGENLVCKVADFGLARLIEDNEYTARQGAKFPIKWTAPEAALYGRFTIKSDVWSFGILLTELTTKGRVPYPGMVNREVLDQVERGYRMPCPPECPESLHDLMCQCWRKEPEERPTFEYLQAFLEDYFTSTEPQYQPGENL
Chain of Ret(h) (P07949 29-1114): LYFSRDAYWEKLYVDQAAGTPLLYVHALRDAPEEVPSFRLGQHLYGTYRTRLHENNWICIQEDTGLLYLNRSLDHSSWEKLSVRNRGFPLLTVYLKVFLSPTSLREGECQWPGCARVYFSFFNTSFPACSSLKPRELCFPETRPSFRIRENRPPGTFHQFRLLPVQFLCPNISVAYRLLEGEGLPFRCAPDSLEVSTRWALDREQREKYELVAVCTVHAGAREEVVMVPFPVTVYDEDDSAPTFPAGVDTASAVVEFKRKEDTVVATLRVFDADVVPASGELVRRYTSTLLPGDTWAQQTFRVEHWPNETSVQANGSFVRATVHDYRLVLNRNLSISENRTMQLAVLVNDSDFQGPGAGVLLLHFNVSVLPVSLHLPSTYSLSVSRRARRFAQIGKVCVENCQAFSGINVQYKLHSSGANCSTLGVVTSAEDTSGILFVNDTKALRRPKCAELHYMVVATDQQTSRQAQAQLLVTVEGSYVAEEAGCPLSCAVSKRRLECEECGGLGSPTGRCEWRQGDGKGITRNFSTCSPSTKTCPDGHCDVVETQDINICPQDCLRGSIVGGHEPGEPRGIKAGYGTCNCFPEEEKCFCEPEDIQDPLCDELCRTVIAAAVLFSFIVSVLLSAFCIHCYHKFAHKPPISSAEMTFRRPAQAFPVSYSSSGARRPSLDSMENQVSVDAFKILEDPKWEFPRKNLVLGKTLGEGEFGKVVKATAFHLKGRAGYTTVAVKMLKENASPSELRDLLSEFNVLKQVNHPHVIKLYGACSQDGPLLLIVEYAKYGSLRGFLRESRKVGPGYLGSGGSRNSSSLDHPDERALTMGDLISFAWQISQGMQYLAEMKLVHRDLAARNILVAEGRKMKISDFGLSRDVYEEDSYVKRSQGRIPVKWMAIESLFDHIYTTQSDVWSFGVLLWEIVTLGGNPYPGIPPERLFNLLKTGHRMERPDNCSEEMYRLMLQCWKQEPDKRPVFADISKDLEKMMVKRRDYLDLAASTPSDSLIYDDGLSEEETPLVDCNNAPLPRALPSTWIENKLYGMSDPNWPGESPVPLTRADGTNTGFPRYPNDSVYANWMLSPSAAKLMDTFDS

SMILES | inhibition at 1 µM [1] [%] | inhibition at 1 µM [2] [%] | inhibition at 1 µM [3] [%] | inhibition at 1 µM [4] [%] | GI50 [5] [nM] | GI50 [6] [nM] | GI50 [7] [nM] | GI50 [8] [nM] | anti-tumor effect [9] | inhibition at 1 µM [10] [%] | inhibition at 1 µM [11] [%] | GI50 [12] [nM] | GI50 [13] [nM]
Cc1cc2c(F)c(Oc3nc(Nc4cc(C5CC5)[nH]n4)cc(N4CCN(CCO)CC4)n3)cc(F)c2[nH]1 [Compound 83] | 99 | 99 | 100 | 101 | 0.67 | 0.4 | 3.3 | 0.55 | strong anti-tumor effect | 96 | 110 | – | –
C/C=C/c1cc(Nc2cc(N3CCNCC3)nc(Oc3cc(F)c4[nH]c(C)cc4c3F)n2)n[nH]1 [Compound 90] | 101 | 100 | 100 | 99 | 0.9 | 0.13 | 5.07 | 0.85 | strong anti-tumor effect | 95 | 112 | 2 | 3.8

— patent publication US10245261B2, “Substituted indol-5-ol derivatives and their therapeutic applications” (NantBioScience, Inc., priority 2013, dated 2019)
